Laboratory results reported in patent publication US6649797B2, “Compounds and methods of use to treat infectious diseases” (The Picower Institute for Medical Research, priority 1996, dated 2003).
Counter-ions that a name gives are not always drawn. Like-named read-outs stand apart in the source and are kept apart here.

Assays:
[1] = system: macrophage-tropic strain of HIV-1; assay: Inhibition of HIV-1 replication in peripheral blood-derived macrophages (IC50, RT or p24 in medium); format: cell-based; settings: Human immunodeficiency virus 1, Macrophage, 120 h; 50% inhibition of viral growth; RT or p24 in medium about day 5 or 6 post-infection
Method: A quantitative measurement of the activity of the compounds of the invention to block the replication of HIV-1 in non-dividing cells can be determined by culture of a macrophage-tropic strain of HIV-1 on peripheral blood-derived macrophages. The cells are cultured for 5-6 days prior to infection in a medium consisting of DMEM supplemented with 10% type A/B human serum and 200 U/ml Macrophage Colony Stimulating Factor, with half the medium changed after 3 days, to reach a density of about 10^6 cells per 5 ml well. A macrophage-tropic viral stock may be grown on these cells. The concentration of infectious particles in the stock is estimated by measurement of p24 antigen concentration.
To test the effect of compounds of the invention on HIV-1 infection in the above-described culture system, the medium is removed and replaced with medium containing HIV-1 at a concentration of 1 ng of p24 (10^4 TCID50/ml (TCID=tissue culture infectious doses)) and a known concentration of the compound of the invention (the inhibitor). After 24 hours, the cultures are washed to remove non-adherent virus and the culture is re-fed with medium containing the inhibitor at the desired concentration. The amount of replication of HIV-1 is estimated by an assay of the reverse transcriptase activity or by an assay of the concentration of p24 antigen in the culture medium every 2-3 days throughout the post-infection period. In a preferred embodiment the anti-HIV potency of the candidate drug is measured by comparison of the concentration of reverse transcriptase (RT) or of p24 antigen in the medium of the treated and control cultures at the time of the peak of these values in non-treated control cultures, that is about day 5 or 6 post-infection. Repetition at various levels of inhibitor allows for the calculation of the concentration of inhibitor that achieves 50% inhibition of viral growth, IC50. Table I discloses the IC50 of various inhibitors.

HIV-1ADA = assay: Anti-HIV activity in primary human monocytes, day 9 (Table IX, FIG. 12C); format: cell-based; settings: Human immunodeficiency virus 1, Monocyte, 216 h; day 9 after infection; >10 μM = 50% inhibition not achieved at maximal concentration; read-out: IC50
Method: Monocytes infected with HIV-1ADA were cultured in the presence of CNI-H0294 and CNI-H3094 in various concentrations. Nine days after infection, RT activity in culture supernatants was quantified. The results are presented as percent of total RT activity in untreated cultures (control). Three independent samples were assayed for each drug concentration, and the standard deviation was less than 15%.
[…] A 50% inhibitory concentration (IC50) was determined at day 9 after infection.

Plasmodium falciparum = assay: Antimalarial activity in vitro, [3H]-hypoxanthine incorporation; format: cell-based; settings: clone Dd2
From the text: The antimalarial properties of the compounds of the invention can be analyzed by techniques, assays and experimental animal models well known in the art. For example, the inhibition of growth of Plasmodium falciparum in vitro by the compounds may be assessed by the hypoxanthine-incorporation method (Desjardins et al., 1979, Antimicrob. Ag. Chemother. 16:710-718). […] The in vivo efficacy of the compounds can also be tested in mouse models in which parasitemia is enumerated following administration of the compound (Ager, A. L. 1984, Rodent malaria models, pp 225-264. In Handbook of Experimental Pharmacology vol. 68, Antimalarial Drugs, Peters and Richards eds, Springer-Verlag, Berlin).
The antimalarial activity of the compounds was determined essentially as described in Desjardins et al. supra. Fifty μl of various concentrations of a compound of the invention, chloroquine, or pyrimethamine were added to the wells of microtiter plates, followed by 200 μl of ring-stage, synchronized, P. falciparum-infected erythrocytes (final hematocrit=1.5%, final parasitemia=1-5%). The plates were incubated for 24 hr in a candle jar kept at 37° C., and then 25 μl of [^3H]-hypoxanthine (Amersham, Arlington Heights, ILL.; 2.5 μl Ci/well) was added. The plates were then incubated for a further 24 hr, before harvesting onto Unifilter-96 GF/C filter-microplates (Packard; Meriden, Conn.). Twenty-five μl of Microscint scintillation fluid (Packard) was added to each well of the filter-microplate, which was subsequently counted in a Top-count microplate scintillation counter (Packard). The percent of [^3H]-hypoxanthine uptake relative to control infect-erythrocytes was used to determine the IC50 value for the compounds by non-linear regression for LD50 determination.

[2] = In vitro metabolism with mouse liver post-mitochondrial supernatant and NADPH; format: in vitro ADME; settings: for metabolic conversion (drug altered, as judged by peak area): 60 min incubation
Method: Several female ND4 Swiss Webster mice were euthanized by carbon dioxide inhalation and the livers excised and rinsed with ice cold phosphate buffered saline (pH 7.4). The livers were minced, gently homogenized in 50 mM phosphate buffer (pH 7.4) with a Dounce homogenizer, and centrifuged at 9600× g for 20 min. The post-mitochondrial supernatant was kept, glycerol added to 20%, and frozen at −70° C in 1.0 ml aliquots until used. For each incubation, 1.0 ml of a 1.0 mg/ml drug solution was added to 3.0 ml of 50 mM phosphate buffer (pH 7.4), 1.0 ml of 2 mg/ml NADPH in 50 mM phosphate (pH 7.4), and 1.0 ml of the post-mitochondrial supernatant. Five hundred μl of each incubate was then immediately transferred to an ice-cold tube to provide the zero-time sample, and addition 500 μl aliquots removed to ice-cold tubes at 8, 15, 30, and 60 min. The samples were then extracted, and analyzed by HPLC as described in section 7.1. Control incubations were also performed where drug or post-10 mitochondrial supernatant was omitted. […] Peaks in the CNI compound incubations which increased over time, and were not present in control samples lacking the enzyme preparation were treated as putative metabolites.

[3] = Toxicity in mice, median lethal dose by intraperitoneal injection; format: in vivo, mouse; settings: for LD50: mouse, in vivo, ip, read-out: LD50 ± standard deviation
Method: The doses of compounds of the invention found to be lethal to 50% of the mice (LD50) were determined by intraperitoneal injection of groups of five animals with increasing doses of each compound. CNI-0294 was administered from 0, 2, 10, 20, 40, 80, 160, 320, 640, 1280 mg/kg in 0.5 ml of water/HCl; CNI-1594 at 0, 2.4, 5, 10, 20, 40, 80 mg/kg in 0.5 ml of water/HCl; CNI-1794 at 0, 20, 50, 80 mg/kg in 0.5 ml of water/HCl; and CNI-1894 at 0, 10, 20, 40, 80, 240, 480, 960 mg/kg in water/HCl. […] The percentage of animals in each group which died were utilized to calculate the LD50 by non-linear curve fitting with the Enzfit software (Elsevier Bioscience; Cambridge, UK) programmed with the Chou equation (Chou 1976, J Theor Biol 39:253-276)).

[4] = Pharmacokinetics in mice (plasma, HPLC); format: in vivo, mouse; settings: for Dose: calculated from clearance for target serum conc. (No. 2: 10 nM; No. 11: 50 nM; No. 15: 15 nM); for AUC / Cmax / bioavailability / Tmax: female, ND4 Swiss Webster, plasma; for Tmax: read-out: tmax (converted)
Method: Standard addition curves for each test compound were constructed by adding increased amounts of drug to mouse or human A^+ plasma (Long Island Blood Services; Melville, N.Y). […] The column was washed with 1.0 ml of water and then eluted with 1.0 ml of 10 mM tetramethylammonium chloride/10 mM heptane sulfonate/4.2 mM H3PO4/95% CH3CN/5% H2O (Buffer C). The eluted sample was reduced to dryness in a rotary evaporator and resuspended in 1.0 ml Buffer A.
Two hundred μl of the resuspended sample was injected onto a Hewlett-Packard model 1090 high performance liquid chromatography system (HPLC)(Wilmington, Del.) equipped with a photodiode array ultraviolet/visible spectrophotometric detector, autosampler, and Chemstation operating software. The column used was a 250×4.6 mm Zorbax RX-C8 column (Mac-Mod Analyticals; Chadd's Ford, Pa.) kept at room temperature and run at 1.5 ml/min. The mobile phase used was Buffer A and 10 mM tetramethylammonium chloride/10 mM heptane sulfonate/4.2 mM H3PO4/75% CH3CN/25% H2O (Buffer B), with all runs initiated at 10% Buffer B. A linear 30 min gradient to 60% Buffer B was then performed, followed by a 4 min reverse gradient to initial conditions.
Female ND4 Swiss Webster mice (21-24 g) were obtained from Harlan Sprague Dawley (Indianapolis, Ind.) and randomly placed in groups of five in cages with free access to food and water. […] The other CNI compounds were administered intraperitoneally or by oral gavage as a solution in water titrated with sufficient HCl to dissolve the drug. At various time points, ranging from 5 min to 4 days, a single group of animals was euthanized by carbon dioxide inhalation and bled by cardiac puncture using heparin as an anticoagulant. The blood from the five mice in the group was pooled and centrifuged at 14000× g for 10 min. The volume of plasma was measured, and equal volume of Buffer A added, and the mixture extracted and analyzed as described above, except that the dried eluates were resuspended in 200 μl Buffer A and 100 μl was injected onto the high performance liquid chromatography (HPLC) system.
The area under the plasma concentration-time curve (AUC) was determined, and bioavailability was measured as AUCoral/AUCi.p. A and B represent the zero time intercept of the distribution and elimination phases respectively, and a and β the respective slopes of the phases multiplied by 2.303. The t/2α and t1/2β are calculated half-lives of the drug in each phase (0.693/α and 0.693/β respectively). The volume of distribution (VD) was calculated as dose/B, and the total clearance rate (Cltot) calculated as β*VD. Cmax and tmax are the maximal plasma concentration and time of this measurement, respectively.

HIV-1 = HIV-1 production in cultured monocytes at fixed 100 nM; format: cell-based; settings: monocytes infected 10 days prior to assay (10 ng p24/10^6 cells), percentage of untreated control
Method: Alternatively, the compounds may all be compared for inhibition of HIV replication at a fixed concentration. Presented in Table II are compounds that were used at a concentration of 100 nM to inhibit the production of HIV-1 in cultured monocytes infected with HIV-1 10 days prior to assay (10 ng of p24/10^6 cells). The production of HIV-1 in each treated culture is reported as percentage of untreated control.

[5] = mouse, ip, 50 mg/kg, vehicle water
[6] = mouse, po, 50 mg/kg, vehicle water
[7] = mouse, i.p., 50 mg/kg, vehicle water
[8] = mouse, ip, 20 mg/kg, vehicle water
[9] = mouse, i.p., 20 mg/kg, vehicle water

SMILES: CC(=O)c1cccc(Nc2cc(C)[n+](C)c(N)n2)c1 [Compound No. 14, 4-(3-acetylphenyl)amino-2-amino-1,6-dimethylpyrimidinium iodide]
- IC50 [1]: 10 nM
- IC50 (HIV-1ADA): 1000 nM

SMILES: CC(=O)c1cc(Nc2cc(C)nc(N)n2)cc(C(C)=O)c1 [Compound No. 11, 2-amino-4-(3,5-diacetylphenyl)amino-6-methylpyrimidine]
- less active than CNI-0294 (Plasmodium falciparum): approximately 5 fold
- IC50 [1]: 50 nM
- metabolites produced [2]: three minor and one major metabolite
- metabolic conversion (drug altered, as judged by peak area) [2]: 65.19%
- visible signs of toxicity [3]: well tolerated
- LD50 [3]: > 160 mg/kg
- Dose [4]: 13.3 mg/Kg day
- AUC [4, 5]: 3930 ng·h/mL
- Cmax [4, 5]: 5700 ng/mL
- bioavailability ([4]; mouse, oral, mice, single 50 mg/kg dose, AUCoral against AUCi.p., read-out: relative bioavailability): 15%
- AUC [4, 6]: 570 ng·h/mL
- Cmax [4, 6]: 350 ng/mL
- Tmax ([4]; ip, mouse, i.p., 50 mg/kg, vehicle water): 15 min
- bioavailability ([4]; mouse, oral, 50 mg/kg, vehicle water, AUCoral/AUCi.p., read-out: Bioavailability): 15%
- Tmax ([4]; mouse, oral, 50 mg/kg, vehicle water): 15 min
- maximal plasma level ([4]; mice, oral, single 50 mg/kg dose): 0.35 µg/mL
- A (zero time intercept of the distribution phase) [4, 7]: 5.22 µg/mL
- B (zero time intercept of the elimination phase) [4, 7]: 0.14 µg/mL
- Cltot [4, 7]: 16.50 mL/min
- VD [4, 7]: 5.21 L
- t1/2α [4, 7]: 22.8 min
- t1/2β [4, 7]: 219 min
- α [4, 7]: 1.83 h⁻¹
- β [4, 7]: 0.19 h⁻¹

SMILES: CC(=O)c1cccc(Nc2cc(C)[n+](C)c(N)n2)c1 (as salt: iodide) [Compound No. 14, 4-(3-acetylphenyl)amino-2-amino-1,6-dimethylpyrimidinium iodide]
- melting point: 238 to 240 °C

SMILES: CC(=O)c1cc(Nc2nc(N)nc(N)n2)cc(C(C)=O)c1 [Compound No. 13, 2-(3,5-diacetylphenyl)amino-4,6-diamino-1,3,5-triazine]
- Viral Production (HIV-1): 14%
- melting point: 271 to 272 °C

SMILES: CC(=O)c1cccc(Nc2cc(C)nc(N)n2)c1 [Compound No. 15, 4-(3-acetylphenyl)amino-2-amino-6-methylpyrimidine]
- IC50 [1]: 15 nM
- metabolites produced [2]: three minor and one major metabolite
- metabolic conversion (drug altered, as judged by peak area) [2]: 11.74%
- visible signs of toxicity [3]: death occurring in minutes and the animals displaying signs of acute neurotoxicity
- LD50 [3]: 49.04 ± 0.08 mg/kg
- Dose [4]: 5.70 mg/Kg day
- AUC [4, 8]: 820 ng·h/mL
- Cmax [4, 8]: 1930 ng/mL
- Tmax ([4]; ip, mouse, i.p., 20 mg/kg, vehicle water): 15 min
- A (zero time intercept of the distribution phase) [4, 9]: 1.10 µg/mL
- B (zero time intercept of the elimination phase) [4, 9]: 0.01 µg/mL
- Cltot [4, 9]: 26.40 mL/min
- t1/2α [4, 9]: 19.2 min
- t1/2β [4, 9]: 1040 min
- α [4, 9]: 2.14 h⁻¹
- β [4, 9]: 0.04 h⁻¹

SMILES: CC(=O)c1cc(NC(=N)NC(=N)N)cc(C(C)=O)c1.Cl [Compound No. 12, N-(3,5-diacetylphenyl)biguanide hydrochloride]
- Viral Production (HIV-1): 12%
- melting point: 260 to 270 °C (dec.)
